Test system: subjects with moderate-to-severe plaque psoriasis
Experiment: Safety, adverse events, Example 2 through Week 56
Assay type: in vivo, human
Source text: The LTE safety analysis was based on randomized participants in Example who entered the present long-term extension study and received at least one dose of study intervention (including a partial dose) during the study period.

[1] = 25 mg QD, LTE Safety analysis set
[2] = 50 mg QD, Week 16 through Week 56
[3] = 50 mg QD, LTE Safety analysis set

CC(=O)NCCCC[C@@H]1NC(=O)[C@H](Cc2c[nH]c3c(C)cccc23)NC(=O)[C@H]([C@@H](C)O)NC(=O)[C@H](CC(N)=O)NC(=O)[C@@H](NC(C)=O)C(C)(C)SSC(C)(C)[C@@H](C(=O)N[C@@H](Cc2ccc(OCCN)cc2)C(=O)N[C@@H](Cc2ccc3ccccc3c2)C(=O)NC2(C(=O)N[C@@H](CCC(=O)O)C(=O)N[C@@H](CC(N)=O)C(=O)N[C@@H](Cc3cccnc3)C(=O)N(C)CC(N)=O)CCOCC2)NC1=O [IL-23 receptor antagonist peptide, Ac-[Pen]*-N-T-[W(7-Me)]-[Lys(Ac)]-[Pen]*-Phe[4-(2-aminoethoxy)]-[2-Nal]-[THP]-E-N-[3-Pal]-Sarc-NH2 (*[Pen]-[Pen]* formdisulfidebond)]
Subjects with treatment-emergent serious AE: Neoplasms benign, malignant and unspecified (incl cysts and polyps) (25 mg QD, through Week 56): 0 | Subjects with treatment-emergent serious AE: Nervous system disorders (25 mg QD, through Week 56): 0 | Subjects with treatment-emergent serious AE: Non-cardiac chest pain (25 mg QD, through Week 56): 0 | Subjects with treatment-emergent serious AE: Psychiatric disorders (25 mg QD, through Week 56): 0 | Subjects with treatment-emergent serious AE: Respiratory, thoracic and mediastinal disorders (25 mg QD, through Week 56): 0 | Subjects with treatment-emergent serious AE: Suicide attempt (25 mg QD, through Week 56): 0 | Subjects with treatment-emergent serious AE: Tonsillar hypertrophy (25 mg QD, through Week 56): 0 | Subjects with treatment-emergent serious AE: Uterine leiomyoma (25 mg QD, through Week 56): 0 | Subjects with treatment-emergent serious AE: Ventricular dysfunction (25 mg QD, through Week 56): 0 | Suicide attempt: number of subjects (25 mg QD, through Week 56): 0 | Sunburn: number of subjects (25 mg QD, through Week 56): 0 | Thrombocytopenia: % of subjects (25 mg QD, through Week 56): (2.3%) | Thrombocytopenia: number of subjects (25 mg QD, through Week 56): 1 | Thrombocytosis: number of subjects (25 mg QD, through Week 56): 0 | Tonsillar hypertrophy: number of subjects (25 mg QD, through Week 56): 0 | Tooth fracture: number of subjects (25 mg QD, through Week 56): 0 | Type 2 diabetes mellitus: number of subjects (25 mg QD, through Week 56): 0 | Urinary tract disorder: number of subjects (25 mg QD, through Week 56): 0 | Uterine leiomyoma: number of subjects (25 mg QD, through Week 56): 0 | Vascular disorders: number of subjects (25 mg QD, through Week 56): 0 | Ventricular dysfunction: number of subjects (25 mg QD, through Week 56): 0 | Vertigo: % of subjects (25 mg QD, through Week 56): (2.3%) | Vertigo: number of subjects (25 mg QD, through Week 56): 1 | Vitamin D deficiency: number of subjects (25 mg QD, through Week 56): 0 | Subjects with 1 or more Serious Infections and infestations [1]: 0 | Subjects with 1 or more Serious adverse events [1]: 0 | Subjects with adverse event: Arthralgia [1]: 0 | Subjects with adverse event: Hypertension [1]: 0 | Subjects with adverse event: Influenza [1]: 0 | Subjects with adverse event: Sinusitis [1]: 0 | Subjects with adverse event: Vomiting [1]: 0 | Subjects with serious adverse event: Cerebrovascular accident [1]: 0 | Subjects with serious adverse event: Coronary artery disease [1]: 0 | Subjects with serious adverse event: Diverticulitis [1]: 0 | Subjects with serious adverse event: Foot deformity [1]: 0 | Subjects with serious adverse event: Intervertebral disc protrusion [1]: 0 | Subjects with serious adverse event: Ligament injury [1]: 0 | Subjects with serious adverse event: Non-cardiac chest pain [1]: 0 | Subjects with serious adverse event: Tonsillar hypertrophy [1]: 0 | Subjects with serious adverse event: Uterine leiomyoma [1]: 0 | Subjects with serious adverse event: Ventricular dysfunction [1]: 0 | Subjects with 1 or more treatment-emergent serious adverse events (25 mg QD, Week 16-56): 0 | Subjects with AE leading to discontinuation: Asthenia (25 mg QD, Week 16-56): 0 | Subjects with AE leading to discontinuation: Chills (25 mg QD, Week 16-56): 0 | Subjects with AE leading to discontinuation: Ear and labyrinth disorders (25 mg QD, Week 16-56): 0 | Subjects with AE leading to discontinuation: Gastrointestinal disorders (25 mg QD, Week 16-56): 0 | Subjects with AE leading to discontinuation: General disorders and administration site conditions (25 mg QD, Week 16-56): 0 | Subjects with AE leading to discontinuation: Headache (25 mg QD, Week 16-56): 0 | Subjects with AE leading to discontinuation: Insomnia (25 mg QD, Week 16-56): 0 | Subjects with AE leading to discontinuation: Nervous system disorders (25 mg QD, Week 16-56): 0 | Subjects with AE leading to discontinuation: Proctalgia (25 mg QD, Week 16-56): 0 | Subjects with AE leading to discontinuation: Psoriasis (25 mg QD, Week 16-56): 0 | Subjects with AE leading to discontinuation: Psychiatric disorders (25 mg QD, Week 16-56): 0 | Subjects with AE leading to discontinuation: Skin and subcutaneous tissue disorders (25 mg QD, Week 16-56): 0 | Subjects with AE leading to discontinuation: Vertigo (25 mg QD, Week 16-56): 0 | Subjects with AE leading to discontinuation: Vomiting (25 mg QD, Week 16-56): 0 | Subjects with COVID-19 associated AE of interest: SARS-CoV-2 test positive (25 mg QD, Week 16-56): 0 | Subjects with treatment-emergent AE: Arthralgia (25 mg QD, Week 16-56): 0 | Subjects with treatment-emergent AE: Hypertension (25 mg QD, Week 16-56): 0 | Subjects with treatment-emergent AE: Influenza (25 mg QD, Week 16-56): 0 | Subjects with treatment-emergent AE: Musculoskeletal and connective tissue disorders (25 mg QD, Week 16-56): 0 | Subjects with treatment-emergent AE: Sinusitis (25 mg QD, Week 16-56): 0 | Subjects with treatment-emergent AE: Vascular disorders (25 mg QD, Week 16-56): 0 | Subjects with treatment-emergent AE: Vomiting (25 mg QD, Week 16-56): 0 | Subjects with treatment-emergent serious AE: Cardiac disorders (25 mg QD, Week 16-56): 0 | Subjects with treatment-emergent serious AE: Cerebrovascular accident (25 mg QD, Week 16-56): 0 | Subjects with treatment-emergent serious AE: Coronary artery disease (25 mg QD, Week 16-56): 0 | Subjects with treatment-emergent serious AE: Diverticulitis (25 mg QD, Week 16-56): 0 | Subjects with treatment-emergent serious AE: Foot deformity (25 mg QD, Week 16-56): 0 | Subjects with treatment-emergent serious AE: General disorders and administration site conditions (25 mg QD, Week 16-56): 0 | Subjects with treatment-emergent serious AE: Infections and infestations (25 mg QD, Week 16-56): 0 | Subjects with treatment-emergent serious AE: Injury, poisoning and procedural complications (25 mg QD, Week 16-56): 0 | Subjects with treatment-emergent serious AE: Intervertebral disc protrusion (25 mg QD, Week 16-56): 0 | Subjects with treatment-emergent serious AE: Ligament injury (25 mg QD, Week 16-56): 0 | Subjects with treatment-emergent serious AE: Musculoskeletal and connective tissue disorders (25 mg QD, Week 16-56): 0 | Subjects with treatment-emergent serious AE: Neoplasms benign, malignant and unspecified (incl cysts and polyps) (25 mg QD, Week 16-56): 0 | Subjects with treatment-emergent serious AE: Nervous system disorders (25 mg QD, Week 16-56): 0 | Subjects with treatment-emergent serious AE: Non-cardiac chest pain (25 mg QD, Week 16-56): 0 | Subjects with treatment-emergent serious AE: Respiratory, thoracic and mediastinal disorders (25 mg QD, Week 16-56): 0 | Subjects with treatment-emergent serious AE: Tonsillar hypertrophy (25 mg QD, Week 16-56): 0 | Subjects with treatment-emergent serious AE: Uterine leiomyoma (25 mg QD, Week 16-56): 0 | Subjects with treatment-emergent serious AE: Ventricular dysfunction (25 mg QD, Week 16-56): 0 | Number of subjects with treatment-emergent AE: Cholelithiasis [2]: 0 | Number of subjects with treatment-emergent AE: Ear and labyrinth disorders [2]: 0 | Number of subjects with treatment-emergent AE: Endocrine disorders [2]: 0 | Number of subjects with treatment-emergent AE: Eye disorders [2]: 0 | Number of subjects with treatment-emergent AE: Eyelid skin dryness [2]: 0 | Number of subjects with treatment-emergent AE: Goiter [2]: 0 | Number of subjects with treatment-emergent AE: Hepatobiliary disorders [2]: 0 | Number of subjects with treatment-emergent AE: Hypertransaminasemia [2]: 0 | Number of subjects with treatment-emergent AE: Immune system disorders [2]: 1 | Number of subjects with treatment-emergent AE: Insomnia [2]: 0 | Number of subjects with treatment-emergent AE: Ocular cyst [2]: 0 | Number of subjects with treatment-emergent AE: Psychiatric disorders [2]: 0 | Number of subjects with treatment-emergent AE: Retinal vein occlusion [2]: 0 | Number of subjects with treatment-emergent AE: Seasonal allergy [2]: 1 | Number of subjects with treatment-emergent AE: Vertigo [2]: 0 | Subjects with treatment-emergent AE: Immune system disorders (%) [2]: (2.6%) | Subjects with treatment-emergent AE: Seasonal allergy (%) [2]: (2.6%) | Subjects who discontinued study agent because of 1 or more adverse events [3]: 0 | Subjects with 1 or more Serious Infections and infestations [3]: 0 | Subjects with adverse event: Headache [3]: 0 | Subjects with adverse event: Meniscus injury [3]: 0 | Subjects with adverse event: Vomiting [3]: 0 | Subjects with serious adverse event: Cerebrovascular accident [3]: 0 | Subjects with serious adverse event: Diverticulitis [3]: 0 | Subjects with serious adverse event: Intervertebral disc protrusion [3]: 0 | Subjects with serious adverse event: Ligament injury [3]: 0 | Subjects with serious adverse event: Tonsillar hypertrophy [3]: 0 | Subjects with serious adverse event: Uterine leiomyoma [3]: 0 | Subjects with serious adverse event: Ventricular dysfunction [3]: 0 | Subjects with 1 or more treatment-emergent adverse events leading to discontinuation of study agent (50 mg QD, Week 16-56): 0 | Subjects with AE leading to discontinuation: Alanine aminotransferase increased (50 mg QD, Week 16-56): 0 | Subjects with AE leading to discontinuation: Aspartate aminotransferase increased (50 mg QD, Week 16-56): 0 | Subjects with AE leading to discontinuation: Asthenia (50 mg QD, Week 16-56): 0 | Subjects with AE leading to discontinuation: Chills (50 mg QD, Week 16-56): 0 | Subjects with AE leading to discontinuation: Ear and labyrinth disorders (50 mg QD, Week 16-56): 0 | Subjects with AE leading to discontinuation: Gamma-glutamyltransferase increased (50 mg QD, Week 16-56): 0 | Subjects with AE leading to discontinuation: Gastrointestinal disorders (50 mg QD, Week 16-56): 0 | Subjects with AE leading to discontinuation: General disorders and administration site conditions (50 mg QD, Week 16-56): 0 | Subjects with AE leading to discontinuation: Headache (50 mg QD, Week 16-56): 0

— patent publication US20260232767A1, “INTERLEUKIN-23 RECEPTOR ANTAGONIST PEPTIDES FOR USE IN THE TREATMENT OF PSORIASIS” (Janssen Pharmaceutica NV, priority 2023, published 2026)
